Laboratory results as given in patent US20260007652A1, “Selective Modulators of AhR-Regulated Transcription and Method for Using Such Modulators to Treat Cancer” (OREGON STATE UNIVERSITY, priority 2022, published 2026).

Legend:
[1] = tested on: AhR; assay: Xenobiotic response element (XRE) driven reporter in Hepa-1 cells, AhR activation; format: cell-based, mouse; settings: 16 hours
Experimental: FIGS. 69A-69D show representative 11-Cl-BBQ analogs (848 and 849) as non-classical AHR ligands. (A) Stability of AHR protein in the H460 whole cell lysate in the presence or absence of 11-Cl-BBQ (5 μM), PRXS-848 (10 μM), and PRXS-849 (10 μM) at the indicated temperatures; GADPH was used as a loading control. (B) Localization of AHR protein in the H460 treated with 11-Cl-BBQ (100 nM), PRXS-848 (250 nM), PRXS-849 (250 nM), or vehicle control (0.1% DMSO) for two hours; top horizontal panel: AHR protein staining using an AHR-specific antibody conjugated with FITC (green) fluorophore; middle panel: DAPI staining; bottle panel: overlaid images from the top panel and the middle panel in the same column. (C) AHR activation (measured by XRE-luciferase reporter assay in Hepa1 cells) of the parental lead 11-Cl-BBQ and analogs PRXS-848 and PRXS-849 at the indicated concentrations for 16 hours. (D) AHR activation of 11-Cl-BBQ cotreated with a known AHR antagonist CH223191 (1 μM) or 11-Cl-BBQ analogs PRXS-848 and PRXS-849 at the indicated concentrations for 16 hours.
FIG. 76 presents representative AhR compounds (BBQ analogs) of the invention effective for activation of AhR transcription. Activation values greater than 1 at 100 nM were considered a hit with nanomolar affinity to promote AhR activity and synergize with the identified compounds from the synergy screens. Referring to FIG. 76, Fold@ 1 nM refers to activation of AhR transcription at 1 nM; Fold@100 nM refers to activation of AbR transcription at 100 nM; and Fold rel @ 100 refers to relative activation at 100 nM compared to parental compound, 11-Cl-BBQ. The representative AhR ligand compounds presented in FIG. 76 activate AhR transcription and therefore are useful as anti-cancer agents, either alone or in combination with the synergizing compounds (and chemotherapeutic agents) described herein.
was identified as a top hit compound based on its potent (>50% inhibition at 0.1 μM), and selective activity against AhR WT cells versus AhR KO cells (>70% difference between WT and KO cells at 10 μM) (FIG. 11). […] This confirmed Analog 523 activates AhR-mediated transcription and functions as an AhR ligand.

[2] = tested on: SKBR-3 HER2+ breast cancer cells; assay: Cell viability assay, SKBR-3 HER2+ breast cancer cells; format: cell-based, human; settings: 72 hours
Experimental: (§1) Viability assays were performed by seeding cells at a density of 2000 cells per well in 96-well plates, and the following day, treating with compounds for 48 or 72 hours as indicated. Viability was determined by ATP-based Cell-Titer Glo Viability Assay (Promega, Madison WI). Luminescence was measured using the Tropix TR717 microplate luminometer. Viability of treated cells was determined by relativizing to vehicle (0.1-0.3% DMSO) treated wells. For profiling the activity of Analog 523 against the panel of triple-negative breast cancer cell lines, 72-hour treatments are represented.

[3] = tested on: primary human mammary epithelial cells (HMECs) and MCF10A; assay: Cell viability, primary human mammary epithelial cells (HMECs) and MCF10A; format: cell-based; settings: 72-hour exposure
Experimental: as §1
All cell lines, except for the ST1 and ST2 cells were purchased from ATCC, and maintained in 5% CO2, at 37° C., in DMEM or RPMI media containing 10% FBS, and 1% penicillin/streptomycin. All HCC-cell lines were maintained in RPMI. All MDA-cell lines were maintained in DMEM. ZR-75I cells were maintained in RPMI. SKBR3 cells were maintained in DMEM. MCF10A cells were maintained in DMEM/F12 medium with the following supplements added: 5% horse serum, 20 ng/mL epidermal growth factor, […] hydrocortisone, 100 ng/mL cholera toxin, 10 μg/mL insulin, 1% Pen/Strep. Primary human mammary epithelial cells (HMECs) were obtained from Lonza Biosciences (Basel, Switzerland) and were maintained according to the specified culture protocols in Clonetics™ Mammary Epithelial Basal Medium (Lonza). […]

[4] = rats; cited from earlier work
[5] = tested on: MDA-MB-468 cells; assay: Transcriptional profiling by RNA-Seq, MDA-MB-468 AhR WT cells; format: cell-based, human; settings: 250 nM
Experimental: MDA-MB-468 AhR WT and AhR KO cells were seeded in 10 cm plates (3.5 million cells/plate) and allowed to attach overnight. The following day, media was replaced with fresh media containing 250 nM of Analog 523 or Vehicle (0.1% DMSO). Treatments were performed in triplicate. At 4 hours and 12 hours post-treatment, samples were harvested by addition of 700 μL of TRK-Lysis buffer and RNA isolation then performed according to the manufacturer's instructions (E.Z.N.A. Total RNA Kit, Omega Bio-Tek, Norcross, GA). Samples were quantified and 260/280 and 260/230 values inspected by NanoDrop. Samples were then sent for quality control, library preparation (poly-A enrichment) and sequencing at Novogene. Sequencing was performed with 150 bp paired-end reads to a depth of 20 million reads […].

[6] = tested on: HCC1187 cells; assay: Cell viability assay, HCC1187 TNBC cells; format: cell-based, human
Experimental: as §1

[7] = tested on: ST2 cells; assay: Cell viability assay, TNBC stem cells ST2; format: cell-based; settings: Homo sapiens, ST-2; 100 nM; 48 hours
Experimental: as §1
ST1 and ST2 cells were cultured in Mammary epithelial growth medium (Biowhitakker) (Lonza), with the following supplements: Epidermal growth factor (20 ng/mL) (Sigma), basic fibroblast growth factor (20 ng/mL) (BD Biosciences), Heparin (4 μg/mL) (Sigma), B27 Supplement (Invitrogen), Penicillin/Streptomycin (Omega), Gentamycin (35 μg/mL) (Sigma). Cells were gently passaged with Accutase solution. The isolation and characterization of the ST1 and ST2 lines have been previously described (Strietz et al., 2021).

[8] = tested on: HCC70 cells; assay: Cell viability assay, HCC70 TNBC cells; format: cell-based, human
Experimental: as §1

[9] = tested on: MDA-MB-468 cells; assay: Cell-Titer Glo viability assay, MDA-MB-468 AhR WT and AhR KO cells; format: cell-based, human
Experimental: as §1
Analogs of 11-Cl-BBQ were synthesized by Praxis Precision Medicines. Screening was performed using MDA-MB-468 AhR WT and AhR KO cells previously described. Cells were seeded in 10% serum or 2% serum containing media with 1% Pen/Strep at a density of 2000 cell/well in 96-well plates. 20 hours post-seeding, cells were treated with 0.1 μM, 1 μM, or 10 μM of each analog (final DMSO concentration 0.1%-0.2%). After 48 and 72 hours, cells were harvested. The ATP-Based CellTiter Glo Assay kit (Promega, Madison, WI) was used for measuring cell viability.

What does the source list for O=c1c2cccc3cccc(c32)c2nc3ccccc3n12 [Analog 523, 7H-benzimidazo[2,1-a]benzo[de]isoquinolin-7-one]?
receptor activation (XRE reporter) ([1]; 100 μM): ~2 fold; maximal reporter induction ([1]; approximately 100 nM): 10-12 fold; concentrations at which cell line was sensitive (viability) [2]: > 1 µM; inhibition of cell viability in normal mammary epithelial cells ([3]; 10 μM): ~20%; cytotoxicity in normal mammary epithelial cells ([3]; 0.01-10 μM): did not induce any cytotoxicity; LD50 [4]: 660 mg/kg; BIK mRNA induction [5]: ~1.5 fold; BMF mRNA induction [5]: 4-5 fold; PMA1P1 mRNA induction [5]: ~1.5 fold; IER3 mRNA increase ([5]; 12 hours): greater than 6 fold; OSGIN1 mRNA increase ([5]; 12 hours): > 4 fold; IC50 ([6]; Homo sapiens, HCC1187, 72-hour treatment): 81.7 nM; inhibition (cell viability) ([6]; at <0.5 μM, 72 hours): > 50%; inhibition of cell viability at 0.1 µM [7]: > 50%; IC50 ([8]; Homo sapiens, HCC70, 72-hour treatment): 153 nM; inhibition (cell viability) ([8]; at <0.5 μM, 72 hours): > 50%; difference between WT and KO cells (cell viability) ([9]; 10 μM, AhR WT versus AhR KO): > 70%; percent inhibition of cell viability at 0.1 µM ([9]; Homo sapiens, 0.1 μM, AhR WT MDA-MB-468 cells): > 50%; IC50 ([9]; Homo sapiens, MDA-MB-468, 72-hour treatment): 41.2 nM; inhibition (cell viability) ([9]; at <0.5 μM, 72 hours): > 50%
